# Assay results: patent US12171230B2, “Herbicidal compositions” (Bayer Aktiengesellschaft, priority 2018, dated 2024)
# How the values were obtained:
# Type in all cases: in vivo
# Malva pusilia = test: Post-emergence herbicidal action against Malva pusilia; details: 42 DAT; 100 g a.i./ha
# Pharbitis purpurea = test: Post-emergence herbicidal action against Pharbitis purpurea; details: for Herbicidal action 21 DAT [%] against Pharbitis purpurea: post-emergence
# Outline: (§1)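 Greenhouse pot test: three-leaf-stage plants, three weeks from sowing, sprayed with spray-powder or emulsion-concentrate formulations at several dosages (300 to 800 l/ha water). Efficacy rated visually against untreated plants some 3 to 4 weeks later, with Colby formula giving expected combination effect.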
# Brachiaria plantaginea = test: Post-emergence herbicidal action against Brachiaria plantaginea
# From the text: (§2) The following abbreviations are used in the description and the tables that follow: • g of a.i./ha=grams of active substance (active ingredient) (=100% active compound) per hectare; • The sum total of the effects of the individual applications is reported under E^A; • expected values according to Colby are each reported under E^C.
# (§3) The rating period is reported in days after application (DAT).
# Brachiaria decumbens = test: Post-emergence herbicidal action against Brachiaria decumbens; details: g of a.i./ha: 200, 100, 100 + 200
# From the text: as §2, §3
# Veronica hederifolia = test: Post-emergence herbicidal action against Veronica hederifolia
# Bromus sterilis = test: Post-emergence herbicidal action against Bromus sterilis
# Outline: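 Each treatment was applied at a rate expressed as g of 100% active compound per ha, and the effect was scored a given number of days later (DAT). Reference values for combinations were calculated two ways: E^A, the sum of individual effects, and E^C, Colby's expected value.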
# Brachiaria platyphylla = test: Post-emergence herbicidal action against Brachiaria platyphylla
# Outline: as §1
# Lolium rigidum = test: Post-emergence herbicidal action against Lolium rigidum
# Lamium purpureum = test: Post-emergence herbicidal action against Lamium purpureum
# Outline: as §1
# Bellis perenne = test: Post-emergence herbicidal action against Bellis perenne; details: 100 g of a.i./ha
# Experimental: When the observed efficacies exceed the formal sum total of the values of the tests with individual applications, they also exceed the expected value according to Colby, which is calculated using the formula below and is likewise regarded as an indication of synergism (cf. S. R. Colby; in Weeds 15 (1967) p. 20 to 22): E^C=A+B−([…])
# Here: • A=efficacy of the active compound (A) in % at an application rate of a g a.i./ha; • B=efficacy of the active compound (B) in % at an application rate of b g a.i./ha; • E^C=expected value of the effect of the combination (A)+(B) in % at the combined application rate a+b g a.i./ha.
# Seeds or rhizome pieces of mono- and dicotyledonous weeds are placed in sandy loam in pots, covered with soil and grown in a greenhouse under good growth conditions (temperature, air humidity, water supply). Three weeks after sowing, the test plants were treated at the three-leaf stage with the compositions according to the invention. The compositions according to the invention formulated as spray powders or as emulsion concentrates were sprayed onto the green plant parts in various dosages with an application rate of 300 to 800 l/ha of water (equivalent). After the test plants have been left to stand in the greenhouse under optimal growth conditions for about 3 to 4 weeks, the action of the preparations is scored visually in comparison to untreated controls. […]
# Ipomoea ssp. = test: Post-emergence herbicidal action against Ipomoea ssp.; details: 45 DAT
# [1] = (Z61) post-emergence, g of a.i./ha: 1, 270, 90, 1 + 270, 1 + 90
compound,measurement,setting,value
"C=C[C@]1(C(=O)N[C@H]2CO[C@@H](C(=O)OC)C2)CC(c2cc(F)cc(F)c2)=NO1 (relative stereo) [Compound A3, methyl rel-(2R,4R)-4-[[(5S)-3-(3,5-difluorophenyl)-5-vinyl-4H-isoxazole-5-carbonyl]amino]tetrahydrofuran-2-carboxylate]",Herbicidal action,Malva pusilia,50%
same,Herbicidal action 21 DAT against Pharbitis purpurea,Pharbitis purpurea; 5 g of a.i./ha,80%
same,Herbicidal action 21 DAT [%] against Pharbitis purpurea,Pharbitis purpurea; 5 g of a.i./ha,80%
same,Herbicidal action 21 DAT [%] against Pharbitis purpurea,"Pharbitis purpurea; 21 DAT, 5 g of a.i./ha",85%
same,Herbicidal action 21 DAT [%] against Pharbitis purpurea,"Pharbitis purpurea; 21 DAT, 15 g of a.i./ha",85%
same,Herbicidal action 28 DAT [%] against Brachiaria plantaginea,Brachiaria plantaginea; 100 g of a.i./ha,82%
same,Herbicidal action 28 DAT against Brachiaria plantaginea,"Brachiaria plantaginea; (Z61) post-emergence, g of a.i./ha: 200, 100, 100 + 200",82%
same,Herbicidal action 28 DAT against Brachiaria plantaginea,"Brachiaria plantaginea; A3/Asulam, post-emergence, g of a.i./ha by row: 720, 100, 100 + 720",82%
same,Herbicidal action 28 DAT against Brachiaria decumbens,Brachiaria decumbens,87%
same,Herbicidal action against Veronica hederifolia,"Veronica hederifolia; 14 DAT, 1 g of a.i./ha",30%
same,Herbicidal action against Veronica hederifolia,"Veronica hederifolia; 14 DAT, 16 g of a.i./ha",40%
same,Herbicidal action against Veronica hederifolia,"Veronica hederifolia; 28 DAT, 16 g of a.i./ha",50%
same,Herbicidal action 14 DAT against Bromus sterilis,Bromus sterilis; 1 g of a.i./ha,15%
same,Herbicidal action 28 DAT against Bromus sterilis,Bromus sterilis; 1 g of a.i./ha,15%
same,Herbicidal action 14 DAT against Bromus sterilis,Bromus sterilis; 4 g of a.i./ha,85%
same,Herbicidal action in [%] 14 DAT against Bromus sterilis,"Bromus sterilis; 14 DAT, 1 g of a.i./ha",30%
same,Herbicidal action in [%] 28 DAT against Bromus sterilis,Bromus sterilis; 1 g of a.i./ha,30%
same,Herbicidal action in [%] 28 DAT against Bromus sterilis,Bromus sterilis; 4 g of a.i./ha,90%
same,Herbicidal action 28 DAT against Bromus sterilis,Bromus sterilis; [1],15%
same,Herbicidal action 21 DAT [%] against Brachiaria platyphylla,Brachiaria platyphylla; 1.7 g of a.i./ha,20%
same,Herbicidal action 21 DAT against Brachiaria platyphylla,Brachiaria platyphylla; 1.7 g of a.i./ha,20%
same,Herbicidal action 21 DAT [%] against Brachiaria platyphylla,"Brachiaria platyphylla; 1.7 g of a.i./ha, post-emergence, block with (B1.14) Tembotrione",20%
same,Herbicidal action 21 DAT [%] against Brachiaria platyphylla,"Brachiaria platyphylla; 1.7 g of a.i./ha, post-emergence, block with (B9.10) Saflufenacil",20%
same,Herbicidal action 21 DAT [%] against Brachiaria platyphylla,Brachiaria platyphylla; 5 g of a.i./ha,80%
same,Herbicidal action against Lolium rigidum,"Lolium rigidum; 14 DAT, 1 g of a.i./ha",35%
same,Herbicidal action against Lolium rigidum,"Lolium rigidum; 28 DAT, 1 g of a.i./ha",15%
same,Herbicidal action against Lolium rigidum,"Lolium rigidum; 28 DAT, 4 g of a.i./ha",50%
same,Herbicidal action 14 DAT against Lamium purpureum L.,Lamium purpureum; 1 g of a.i./ha,65%
same,Herbicidal action 28 DAT against Lamium purpureum L.,Lamium purpureum; 1 g of a.i./ha,25%
same,Herbicidal action in [%] 14 DAT against Lamium purpureum L.,Lamium purpureum; 1 g of a.i./ha,65%
same,Herbicidal action in [%] 28 DAT against Lamium purpureum L.,Lamium purpureum; 1 g of a.i./ha,25%
same,Herbicidal action in [%] 28 DAT against Lamium purpureum L.,Lamium purpureum; 4 g of a.i./ha,40%
same,Herbicidal action against Lamium purpureum L.,"Lamium purpureum; 14 DAT, 1 g of a.i./ha",65%
same,Herbicidal action against Lamium purpureum L.,"Lamium purpureum; 28 DAT, 1 g of a.i./ha",25%
same,Herbicidal action against Lamium purpureum L.,"Lamium purpureum; 28 DAT, 4 g of a.i./ha",40%
same,Herbicidal action 32 DAT [%] against Lamium purpureum,"Lamium purpureum; 100 g of a.i./ha, post-emergence",50%
same,Herbicidal action 14 DAT against Lamium purpureum L.,Lamium purpureum; [1],65%
same,Herbicidal action 43 DAT [%] against Bellis perenne,Bellis perenne,0%
same,Herbicidal action,Ipomoea ssp.; 50 g a.i./ha,40%
same,Herbicidal action,Ipomoea ssp.; 100 g a.i./ha,50%
